Reference: patent publication US8586625B2, “Derivatives of taxol and closely related compounds” (priority 2008, dated 2013)
In brackets after ≈: the same amount, converted by molar mass. Entries after “also recorded” stand apart in the source; their conditions may differ.

What was measured:
[1] = tested on: Balb/c mice; assay: LD50 test using Balb/c mice; assay type: in vivo; conditions: 80-140 mg/kg, observed 4 weeks after injection
Description: Balb/c mice were divided into 9 groups, 8 mice in each group (4 males and 4 females). Group one, the control group, were given 50 μl solvent with 150 μL normal saline. Groups 2, 3, 4 and 5 were given 125, 150, 175, 200 mg/kg of PACLP respectively. Groups 6, 7, 8 and 9 were given 80, 100, 120, 140 mg/kg of paclitaxel respectively. Mice were observed 4 weeks after injection. The results are set in FIG. 6. Most of the animals died within the first week after treatment.

[2] = tested on: hepatocyte cell line HepG2; assay: Toxicity on hepatocyte cell line HepG2 (MTT test); assay type: cell-based; conditions: for CD50 (cytotoxic concentration leading to reduction of 50% of the cell number compared to untreated cells): HepG2, 72 h, MTT test
Description: PACLP and paclitaxel were evaluated in vitro using hepatocyte cell line HepG2. Cells were cultured in 96 well plates at a cell density of 20000 cell/well and treated with increasing concentrations of both PACLP and paclitaxel (0-1000 μM) for 72 h. Control cells were treated with an absolute ethanol, diluted in the same way as the tested substances. Cytotoxicity was measured using the MTT test. All experiments were carried out in triplicates and each test was repeated three times.
CD50 (the cytotoxic concentration leading to reduction of 50% of the cell number compared to untreated cells) was at concentration of 5 μM and 100 μM, and 500 μM for paclitaxel, PACLP, and the solvent, respectively.

[3] = tested on: PC3 prostate carcinoma; assay: MTT proliferation assay, in vitro cytotoxicity; assay type: cell-based; conditions: FIG. 3c, read-out: calculated EC50
Description: (§1) Cancer cells, HeLa, Caco-2, PC3 prostate, CAPAN, A549, SKBR3 were maintained in a humidified atmosphere at 37° C. and gassed with 5% CO2 in air in air. The cells were incubated with various concentrations of paclitaxel and PACLP. The in vitro cytotoxicity of the drugs was measured by a proliferation assay utilizing tetrazolium dye, MTT ([3-(4,5-[…])-2,5 diphenyl tetrazolium bromid). The experiments were carried out with cells in the exponential growth phase.
(§2) Results of these experiments are presented in graphs 3a-3f, indicating the IC50, (the concentration found to inhibit about fifty percent of the growth of the cancer cell lines).

[4] = tested on: Caco-2 carcinoma of the colon; assay: MTT proliferation assay, in vitro cytotoxicity; assay type: cell-based; conditions: Homo sapiens, FIG. 3b, read-out: calculated EC50
Description: as §1, §2

[5] = tested on: HeLa cell line; assay: MTT proliferation assay, in vitro cytotoxicity; assay type: cell-based; conditions: Homo sapiens, FIG. 3a, read-out: calculated EC50
Description: as §1, §2

[6] = tested on: CAPAN; assay: MTT proliferation assay, in vitro cytotoxicity; assay type: cell-based; conditions: 72 h, FIG. 3d, read-out: calculated EC50
Description: as §1, §2

[7] = tested on: A549 lung cancer; assay: MTT proliferation assay, in vitro cytotoxicity; assay type: cell-based; conditions: Homo sapiens, FIG. 3e, read-out: Calculated EC50
Description: as §1, §2

[8] = tested on: SKBR3 breast carcinoma; assay: MTT proliferation assay, in vitro cytotoxicity; assay type: cell-based; conditions: Homo sapiens, SK-BR-3, FIG. 3f, read-out: calculated EC50
Description: as §1, §2

[9] = tested on: 6 cancer cell lines; assay: In vitro anti-tumor activity on 6 cancer cell lines (overall comparison); assay type: cell-based; conditions: in words
Description: as §1, §2

[10] = tested on: endothelial cells of human (H-1044 EC p7 naïve); assay: Effect on endothelial cell proliferation (cell count); assay type: cell-based; conditions: 48 hours, in words
Description: The test was conducted using endothelial cells of human (H-1044 EC p7 naïve). 70,000 cells were grown in each well. After the cells have adhered for 3 hours, the material (paclitaxel or PACLP) was added to the cells. After 48 hours of cell growth the cells were detached by trypsin and counted. The results are set in.

| SMILES | observation before death [1] | CD50 (cytotoxic concentration leading to reduction of 50% of the cell number compared to untreated cells) [2] [µM] | EC50 [3] [mg/L] | EC50 [4] [mg/L] | EC50 [5] [mg/L] | EC50 [6] [mg/L] | EC50 [7] [mg/L] | EC50 [8] [mg/L] | anti-tumor activity compared to free paclitaxel [9] | cytotoxicity compared to paclitaxel [10] | cytotoxicity compared to paclitaxel ([2]; hepatocyte cell line HepG2, in words) |
| --- | --- | --- | --- | --- | --- | --- | --- | --- | --- | --- | --- |
| CC(=O)O[C@H]1C(=O)[C@@]2(C)[C@H]([C@H](OC(=O)c3ccccc3)[C@]3(O)C[C@H](OC(=O)[C@H](O)[C@@H](NC(=O)c4ccccc4)c4ccccc4)C(C)=C1C3(C)C)[C@]1(OC(C)=O)CO[C@@H]1C[C@@H]2O [paclitaxel, reference compound] | swelling and redness before death | 5 | 12 (≈ 14.1 µM) | 9 (≈ 10.5 µM) | 9 (≈ 10.5 µM) | 11 (≈ 12.9 µM) | 5.5 (≈ 6.44 µM) | 19 (≈ 22.3 µM) |  |  |  |
| CC(=O)O[C@H]1C(=O)[C@@]2(C)[C@H]([C@H](OC(=O)c3ccccc3)[C@]3(O)C[C@H](OC(=O)[C@H](OC(=O)CCCCC4CCSS4)[C@@H](NC(=O)c4ccccc4)c4ccccc4)C(C)=C1C3(C)C)[C@]1(OC(C)=O)CO[C@@H]1C[C@@H]2O (stereo partly drawn) [PACLP, Paclitaxel-lipoate] |  | 100 | 3.5 (≈ 3.36 µM) | 1.5 (≈ 1.44 µM) | 1.5 (≈ 1.44 µM) | 5 (≈ 4.8 µM) | 2.5 (≈ 2.4 µM) | 2 (≈ 1.92 µM) | greater anti-tumor activity; also recorded: somewhat more effective than paclitaxel | less cytotoxic | less cytotoxic |
